Measurements published in ChEMBL document CHEMBL1154834, “A theoretical study of the structure-radical scavenging activity of trans-resveratrol analogues and cis-resveratrol in gas phase and water environment” (Eur J Med Chem, 2010).

Experiment: Antioxidant activity assessed as concentration required to double citronellal oxidation half life by thermo-oxidation method relative to control
Format: functional

## Oc1ccc(CCc2cc(O)cc(O)c2)cc1
  Activity: 260 µM

## Oc1ccc(/C=C\c2cc(O)cc(O)c2)cc1
  Activity: 241 µM

## Oc1ccc(/C=C/c2cc(O)cc(O)c2)cc1
  Activity: 135 µM
